Laboratory results reported in publication PMC11184559, “Identification and Validation of Compounds Targeting Leishmania major Leucyl-Aminopeptidase M17” (ACS Infectious Diseases, 2024).
Where “and” joins values, the source holds several entries; their conditions need not be identical. Equal entries are not always repeated.

What was measured:
rLmLAP [1] = molecular target: T1, rLmLAP (Leishmania major, UniProt Q7KF27); assay: RapidFire-MS aminopeptidase activity assay: inhibition of rLmLAP (LSTVIVR substrate); assay type: biochemical; conditions: for IC50: RapidFire-MS, 5 nM enzyme, 10 μM LSTVIVR, 20 min preincubation, 0.195-100 μM, mean ± standard error (n = 3)
T1 sequence (Q7KF27 entry or part of it): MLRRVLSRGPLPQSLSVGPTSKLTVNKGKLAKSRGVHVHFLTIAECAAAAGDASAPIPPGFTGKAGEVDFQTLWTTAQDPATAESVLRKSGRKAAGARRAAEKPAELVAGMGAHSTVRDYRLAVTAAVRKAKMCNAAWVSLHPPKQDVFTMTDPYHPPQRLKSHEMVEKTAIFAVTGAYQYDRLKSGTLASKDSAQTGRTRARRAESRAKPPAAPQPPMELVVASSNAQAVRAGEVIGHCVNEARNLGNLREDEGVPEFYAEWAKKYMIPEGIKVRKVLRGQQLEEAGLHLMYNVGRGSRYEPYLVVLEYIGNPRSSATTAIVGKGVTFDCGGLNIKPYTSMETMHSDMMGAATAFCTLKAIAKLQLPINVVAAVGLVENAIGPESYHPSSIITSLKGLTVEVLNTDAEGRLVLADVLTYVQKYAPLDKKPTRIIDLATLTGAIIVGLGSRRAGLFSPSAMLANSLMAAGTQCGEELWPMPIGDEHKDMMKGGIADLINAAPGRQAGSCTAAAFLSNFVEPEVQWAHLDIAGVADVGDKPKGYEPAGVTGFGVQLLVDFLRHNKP
Method: Assays were carried out as previously described,[24] with some differences indicated below. The reaction mix consisted of 0 nM (control) and 30 nM rLmLAP in 1× PBS, pH 7.0, 0.005% (v/v) NP-40, plus 7.5 μL of LSTVIVR substrate peptide in the same buffer. For product quantification, the peak areas of the LSTVIVR peptide were integrated with respect to the internal standard LSTVIVR* peptide. The C-terminal arginine was chosen because this amino acid is amenable to isotopic labeling.[45]
rLmLAP was assayed at 5 nM with 10 μM (1× appKM) of LSTVIVR substrate peptide. The enzyme was preincubated with bestatin or DMSO for 20 min. Bestatin was prepared at 10 concentrations in DMSO, covering the range from 0.39 to 100 μM. […] The remaining experimental conditions were maintained, as described above.
A high-throughput screen was conducted against rLmLAP using 3,383 compounds with known protease inhibitor motifs. The compounds were dispensed onto plates using an ECHO 550 acoustic dispenser (Labcyte, Sunnyvale, CA). The enzyme was assayed at 5 nM with 10 μM (1× appKM) LSTVIVR substrate for 60 min. Before adding the substrate, the enzyme was preincubated with 45 nL of the compounds or DMSO for 20 min. Compounds, dissolved in DMSO, were tested at 30 μM. […] No replicates were performed for each inhibitor in this experiment. The remaining experimental conditions were kept constant as described above. The ActivityBase program from IDBS provider (https://www.idbs.com) was used to process and analyze the data. Selection criteria for potential inhibitors in this screen required an inhibition percentage greater than the mean (calculated from the inhibition percentages of all the inhibitors) plus three standard deviations (SD). All compounds were purchased commercially and are >95% pure by HPLC.
To obtain IC50 data for screen-detected rLmLAP inhibitors at a single concentration, ten-point concentration–response curves were generated for selected inhibitors showing greater than mean ±3 SD inhibition. The curves were prepared in 384-well plates with a maximum concentration of 100 μM and 1:2 serial dilutions in DMSO (0.195–100 μM) using an ECHO 550 acoustic dispenser. All other experimental conditions were as described above for RapidFire-MS optimization. Three replicates of each concentration of inhibitor were evaluated. The IC50 value was calculated by nonlinear fitting of a four-parameter logistic function to the experimental data. Curve fitting and IC50 calculations were performed using IDBS ActivityBase XE version 9.2.0.106. Inhibitory activity was determined using the peak area ratio, calculated as the reaction product (STVIVR) divided by its internal standard (*LSTVIVR). The peak area ratio of the reaction without enzyme was defined as 100% inhibitory activity, and that of the complete reaction mixture was defined as 0% inhibitory activity. At least three replicates were generated for each hit compound.

rHsLAP = molecular target: T2, rHsLAP (Homo sapiens, UniProt P28838); assay: RapidFire-MS selectivity study against human LAP; assay type: biochemical; conditions: for IC50: 150 nM rHsLAP, 600 μM LSTVIVR, 1 mM ZnCl2, 180 min
T2 construct: purchased Assay Genie, Ireland
T2 sequence (P28838 whole entry): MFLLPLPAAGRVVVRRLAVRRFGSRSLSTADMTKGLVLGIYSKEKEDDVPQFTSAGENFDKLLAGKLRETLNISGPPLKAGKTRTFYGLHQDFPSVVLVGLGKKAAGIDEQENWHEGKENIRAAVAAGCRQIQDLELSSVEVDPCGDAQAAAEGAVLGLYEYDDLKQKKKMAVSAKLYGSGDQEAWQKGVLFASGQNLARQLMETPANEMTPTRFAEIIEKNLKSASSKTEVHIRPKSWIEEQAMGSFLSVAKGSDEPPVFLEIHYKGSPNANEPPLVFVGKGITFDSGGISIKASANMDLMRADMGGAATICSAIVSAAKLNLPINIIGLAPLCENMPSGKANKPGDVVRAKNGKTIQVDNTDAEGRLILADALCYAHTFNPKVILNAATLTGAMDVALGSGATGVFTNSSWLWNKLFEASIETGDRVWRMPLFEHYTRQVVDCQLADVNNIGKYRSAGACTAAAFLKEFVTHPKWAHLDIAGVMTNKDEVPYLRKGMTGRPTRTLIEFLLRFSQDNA
Method: The reaction mixture included 600 μM (1× appKM) LSTVIVR substrate peptide, 1 mM ZnCl2, and the reaction time was 180 min. The inhibitors were tested at concentrations ranging from 0.78 to 100 μM to determine inhibitory activity.

rLmLAP [2] = molecular target: T1, rLmLAP; assay: Mode of inhibition studies for rLmLAP (Leu-pNA, Lineweaver-Burk); assay type: biochemical; conditions: for Modality of rLmLAP inhibition: Lineweaver-Burk, 0, 15, 30, 60 μM inhibitor, L-Leu-pNA 0.59-300 μM
Method: The aminopeptidase enzymatic activity was determined by a continuous kinetic method.[26] The reaction was performed in 50 mM sodium phosphate, pH 7.0, in the presence of 13.9 nM rLmLAP (which is within the linear range of the v0 vs. enzyme concentration relationship) and 30 μM (1 appKM; 23) of the chromogenic substrate L-Leu-p-nitroanilide (Leu-pNA; 2 μL, in DMSO). The reaction was carried out at 25 °C in 96-well microplates (200 μL final volume), in a microplate spectrophotometer (FLUOstar OPTIMA, Germany). The increase of the absorbance at 405 nm (due to the release of the pNA chromogen) was recorded every 15 s for 5 min. Only the linear ranges of the typical curves, corresponding to substrate consumptions lower than 5% (v0 conditions) were used to measure the reaction velocity. Slopes with determination coefficients (R^2) < 0.98 were not considered for linear fits.
For the determination of the inhibition mode, inhibitors were used at 0, 15, 30, and 60 μM. For each inhibitor concentration, the substrate Leu-pNA was added at different concentrations (0.59–300 μM). Experimental data were transformed, and the Lineweaver–Burk double reciprocal plots were constructed. The following equation was used: [drawing 3] 3 where appvmax is the apparent maximal rate of the reaction, and [S]0 is the initial substrate concentration.[26] The inhibition type was determined graphically from the lines of the double reciprocal plots.[26]

[3] = tested on: LmjF.33.2570 (metallo-peptidase, Clan MF, Family M17); assay: Isothermal TPP (iTPP) thermal stabilization, LmjF.33.2570; assay type: binding, Leishmania major; conditions: L. major promastigote lysate, 47 °C, compound at 10× EC50 vs DMSO
Method: Cell lysates were obtained as detailed above. Isothermal TPP assays were performed as previously described[29] but here lysates were incubated at two temperatures: 28 and 47 °C. The first temperature (28 °C) acts as a control temperature at which the protein levels are not altered by the presence of the test compound. The second temperature (47 °C) is the Leishmania spp. median Tm (melting temperature or temperature 50%) according to our interim data. […] These samples were aliquoted and submitted to a temperature shock at the designated temperature for 3 min, then 3 min at room temperature, and finally 3 min on ice. The soluble part was isolated by ultracentrifugation (100,000g, 20 min, 4 °C).
All aspects of sample processing, TMT-labeling, fractionation by HPLC into 10 fractions, LC-MS/MS, and protein identification and quantitation were described previously.[28],[68] Proteins with less than three peptides and those with increased stability at 28 °C were disregarded.
Proteins were identified by searching the MS and MS/MS data for the peptides against L. major strain Friedlin (TriTryp version 61, tritrypdb.org) using MaxQuant (http://maxquant.org/, version 2.1.4.0). All proteomics data sets have been deposited to the ProteomeXchange Consortium via the PRIDE[69] partner repository with the identifier PXD00000. Data were analyzed with Perseus v 1.6.15.[70] The reporter intensities of each protein were extracted and normalized to the control temperature reporter intensity (28 °C), then these normalized values were used to calculate the log2 transformed fold-changes (FC) of […] samples. Proteins stabilized (log2 FC > 1 in both replicates) were selected as putative hits.

Compound: COc1ccc(Cc2c(N)nc(-c3ccccn3)nc2N)cc1 [DDD00057570]
- inhibition at 100 µM (rLmLAP [1]): 99%
- IC50 (rLmLAP [1]): 3.3 µM and 3 µM
- inhibition at 100 µM (rHsLAP): 35%
- IC50 (rHsLAP): > 100 µM
- Modality of rLmLAP inhibition (rLmLAP [2]): noncompetitive inhibitor
- α (noncompetitive inhibition mechanism) (rLmLAP [2]; α > 1: preferential binding to free enzyme): > 1
- Enrichment (log2) replica A, LmjF.33.2570 [3]: 1.38 log2
- Enrichment (log2) replica B, LmjF.33.2570 [3]: 1.17 log2

Compound: O=C(c1cccs1)N(CCCn1ccnc1)c1nc2ccccc2s1 [DDD00097924]
- inhibition at 100 µM (rLmLAP [1]): 75%
- Experimental ΔΔG (rLmLAP [1]; DDD00097924 relative to DDD00057570): 1.3 kcal/mol
- IC50 (rLmLAP [1]): 30.9 µM and 31 µM
- inhibition at 100 µM (rHsLAP): 62%
- IC50 (rHsLAP): 98 µM
- Modality of rLmLAP inhibition (rLmLAP [2]): competitive mode inhibition
- Enrichment (log2) replica A, LmjF.33.2570 [3]: 1.97 log2
- Enrichment (log2) replica B, LmjF.33.2570 [3]: 1.76 log2
